Reference: patent US9096544B2, “Therapeutic compounds” (Wayne State University, priority 2009, dated 2015)

Columns and labels:
[1] = test system: FFMA-AML cells; test: Test D: inhibition of FFMA-AML growth in NOD-SCID mice (survival); format: in vivo
Method: FIG. 6 illustrates 3-Cl-AHPC and compound 16 inhibition of FFMA-AML cell proliferation in NOD-SCID mice and prolongation of their survival. A) Sixteen NOD-SCID mice, which had been randomized into two groups of eight each, were injected through the tail vein with 1×10^6 FFMA-AML cells. Intravenous injection of vehicle or 3-Cl-AHPC (30 mg/kg) twice daily for 4 days was instituted 24 h later. B) An identical study was performed with the exception that 3-Cl-AHPC was administered interperitoneally. C) Twenty four NOD-SCID mice were randomized into three groups of eight. […] The mice were monitored for toxicity and survival.
Non-obese diabetic-severe combined immunodeficiency (NOD-SCID) and ICR-SCID mice were obtained from Jackson Laboratories (Bar Harbor, Me.) and Taconic Farms (Germantown, N.Y.), respectively. A) FFMA-AML and TF(v-SRC) systemic models: NOD-SCID and ICR-SCID mice (4 to 5 weeks old) were injected with either FFMA-AML or TF(v-SRC) cells intravenously. Treatment with either vehicle, 3-Cl-AHPC or compound 16 (the compound of Example 1) was instituted the following day. Once symptoms such as diarrhea, dehydration, weight loss, ascites, paralysis or general weakness became evident, mice were euthanized. B) TF(v-SRC) subcutaneous mouse model. ICR-SCID mice were trocared subcutaneously bilaterally with TF(v-SRC) tumor fragments. Animals with equal tumor weights determined as described previously (Zhang Y. et al., Blood. 2002; 100:2917-2925) were assigned to three experimental arms: 1) control (vehicle treated), 2) subcutaneously treated with compound 16, and 3) intravenously treated with compound 16. The percent increase in the host life-span (% ILS) of the FFMA-AML and TF(v-SRC) bearing mice was calculated by subtracting the […] divided by the median day of death of the AML-bearing vehicle treated mice. In order to determine the efficacy of the 3-Cl-AHPC and compound 16, survival distribution of the 3-Cl-AHPC or compound 16-treated (T) or vehicle (C) groups were compared using the log-rank test. Survival was characterized as the duration of the animal's life span 24 h after the initiation of the xenograft until an observed event (euthanasia or death). A p-value of less than 5% (p<0.05) was considered statistically significant.
The ability of 3-Cl-AHPC and compound 16 to inhibit the growth of FFMA-AML cells in NOD-SCID mice was determined. NOD-SCID mice randomly assigned to two groups of eight mice each were injected with 1 million cells through the tail vein. The mice then received either vehicle or 3-Cl-AHPC (30 mg/kg) given intravenously twice daily for 4 days. […]

[2] = test system: COLO357 cells; test: Test I: growth inhibition of COLO357 cells (MTT); format: cell-based; conditions: 1 μM
Method: Pancreatic cancer cell lines (COLO357, PANC-1, Capan-2, AsPc-1 cells and MiaPaCa-2 cells obtained from American Type Culture Collection; ATCC, Rockville, Md.) were treated with 1 μM 3-Cl-AHPC and compound 16 for various times. Apoptosis in cells were analyzed by flow cytometry using Annexin V-FITC binding together with propidium iodide (PI) staining (Annexin V-FITC apoptosis Detection Kit 1, BD Biosciences, San Diego, Calif.). Data acquisition was done on a FACS Calibur flow cytometer (BD) and analyzed with CellQuest software (BD Biosciences). 3-Cl-AHPC and compound 16 mediated inhibition of cell growth were determined by 3-(4,5-dimethylthiazol-2-yl)-2,5-diphenyltetrazolium bromide (MTT) assay. The cells were seeded on 96-well plates at a density of 4×10^4 cells/well in a volume of 200 μl culture medium. 1 μM AHP3 and 3-Cl-AHPC in DMSO (final concentration 0.1%) were added to the cells for various times. […] After discarding the medium, MTT precipitates were solubilized with 200 μl DMSO and the plates read on a BioTeK Synergy HT (BioTeK Instrument Inc., Vermont) at an absorbance 570 nm. […] The spheroids were stained with acridine orange/ethidium bromide staining and immediately visualized and photographed with fluorescence microscope (OLYMPUS CKX41). […] Then spheroids were visualized and photographed with a fluorescence microscope.

[3] = test system: pancreatic cancer stem cell spheroids; test: Test J: disaggregation of and apoptosis in pancreatic cancer stem cell spheroids; format: cell-based; conditions: for effect on formed spheroids: added to pancreatic cancer stem cell spheroids; for exposure resulting in disaggregation of the spheroid and induction of apoptosis: as little as
Method: Apoptosis and Growth Inhibition of Pancreatic Cancer Stem Cells (Obtained from PANC-1, Capan-2 and MiaPaCa-2 Cells) by Compound 16 and 3-Cl-AHPC.
The sorted CD44^+/CD24^+ cells were suspended in serum-free stem cell medium containing DMEM/F12 (1:1) supplemented with B27 (Life Technologies, Gaithersburg, Md.), 20 ng/ml EGF (Biomol International, Plymouth, Pa.)), 20 ng/ml fibroblast growth factor (Biomol International, Plymouth, Pa.), and 100 μg/ml gentamycin. Approximately 150-200 cells per well were seeded in an ultra low-attachment 96-well plate (Corning Inc, Lowell, Mass.). 3-Cl-AHPC and compound 16 were added the day after cells were plated or after 7 days of spheroid formation. Spheriods were photographed and measured utilizing a Olympus microscope (OLYMPUS CKX41) and Olympus microscope digital camera with DP2-BSW software (Olympus soft imaging solutions GmbH, Germany).
DMSO (vehicle) and 3-Cl-AHPC treated spheroids were centrifuged at 1000 rpm for 5 minutes, washed in PBS, 22% bovine serum albumin added to the spheroids pellet, 95% ethanol placed on the spheroids pellet and the pellet allowed to harden for 30 minutes. Neutral buffered formalin (10%) was added to fix the cell pellet for at least 2 h and the spheroids were then placed in a labeled plastic tissue embedding cassette containing 10% neutral buffered formalin overnight. The spheroids were processed in a Sakura Tissue-Tek Processor for overnight dehydration in graded ethanol, clearing in xylene and infiltration with paraffin. The spheroids were placed in a 4 μm embedding mold for final paraffin embedding.
The TUNEL assay was performed using the In Situ Cell Death Detection kit, POD (Roche-Applied-Science, Mannheim, Germany) according to the manufacturer's instructions.
The paraffin embedding spheroids were deparaffinized and rehydrated, then tissues sections were incubated with proteinase K solution (10-20 μg/ml) for 30 min. Tissues were then rinsed twice in PBS and reacted with 50 μl of the TUNEL reaction mixture at room temperature for 60 min in a dark, humidified chamber. Sections were again rinsed in PBS and incubated for 30 min with 50 μl of the Converter-POD (RocheApplied-Science) and followed by 3-amino-9-ethylcarbazole (AEC). Sections were then counterstained with hematoxylin. As negative controls, corresponding sections were treated in the same way without terminal, deoxynucleotidyl transferase.

| SMILES | increase in the length of survival over vehicle ([1]; 30 mg/kg intravenously twice daily for 4 days, p value 0.0001) | toxicity in treated mice ([1]; 3-Cl-AHPC 30 mg/kg twice daily for 4 days) | inhibition of growth [2] | effect on formed spheroids [3] | exposure resulting in disaggregation of the spheroid and induction of apoptosis [3] | increase in survival (ILS) ([1]; 5.0 mg/kg or 7.5 mg/kg twice a day for 4 days, tail vein, p=0.0002) | toxicity in treated mice ([1]; compound 16 5.0 or 7.5 mg/kg twice a day) |
| --- | --- | --- | --- | --- | --- | --- | --- |
| O=C(O)C=Cc1ccc(-c2ccc(O)c(C34CC5CC(CC(C5)C3)C4)c2)c(Cl)c1 [Compound 3-Cl-AHPC, 4-[3-(1-adamantyl)-4-hydroxyphenyl]-3-chlorocinnamic acid, reference compound] | 25% | toxicity including weight loss and decreased physical activity | significant inhibition of growth | resulted in their disaggregation and the induction of apoptosis in the cells comprising the spheroid | 500 nM |  |  |
| O=C(O)/C=C/c1cnc(-c2ccc(O)c(C34CC5CC(CC(C5)C3)C4)c2)nc1 [Compound 16, (E)-3-[2-(3-(1-Adamantyl)-4-hydroxyphenyl)-5-pyrimidinyl]-2-propenoic acid] |  |  | significant inhibition of growth | resulted in their disaggregation and the induction of apoptosis in the cells comprising the spheroid | 500 nM | 26% | extremely well tolerated and no toxicity was noted |
